Experimental data as given in patent publication US8192962B2, “Processes for detecting toxic substances” (Daikin Industries, Ltd., priority 2001, dated 2012).

System: Transport facilitation protein genes
Experiment: DNA chip mRNA expression in yeast, transport facilitation protein genes (Table 5)
Format: cell-based, Saccharomyces cerevisiae S288C
Method in brief: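 First, S288C yeast grown in YPD at 25° C. are dosed in log phase with one toxicant (growth-inhibiting, not lethal) for 2 h. Next, total RNA is extracted and poly(A) mRNA isolated and reverse-transcribed with Cy3/Cy5-dUTP. Finally, whole-genome chip fluorescence is read relative to unexposed cells.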

[Cl][Cd][Cl] [(2), CdCl2]
The level of expressed mRNA in the presence of chemical substance/The level of expressed mRNA in the absence of chemical substance (yeast gene YBL030C): 0.9
The level of expressed mRNA in the presence of chemical substance/The level of expressed mRNA in the absence of chemical substance (yeast gene YBL099W): 0.9
The level of expressed mRNA in the presence of chemical substance/The level of expressed mRNA in the absence of chemical substance (yeast gene YBR052C): 1.6
The level of expressed mRNA in the presence of chemical substance/The level of expressed mRNA in the absence of chemical substance (yeast gene YBR068C): 1.0
The level of expressed mRNA in the presence of chemical substance/The level of expressed mRNA in the absence of chemical substance (yeast gene YBR127C): 0.7
The level of expressed mRNA in the presence of chemical substance/The level of expressed mRNA in the absence of chemical substance (yeast gene YBR132C): 1.9
The level of expressed mRNA in the presence of chemical substance/The level of expressed mRNA in the absence of chemical substance (yeast gene YBR207W): 1.7
The level of expressed mRNA in the presence of chemical substance/The level of expressed mRNA in the absence of chemical substance (yeast gene YBR293W): 3.1
The level of expressed mRNA in the presence of chemical substance/The level of expressed mRNA in the absence of chemical substance (yeast gene YBR294W): 14.4
The level of expressed mRNA in the presence of chemical substance/The level of expressed mRNA in the absence of chemical substance (yeast gene YBR295W): 1.5
The level of expressed mRNA in the presence of chemical substance/The level of expressed mRNA in the absence of chemical substance (yeast gene YBR298C): 1.0
The level of expressed mRNA in the presence of chemical substance/The level of expressed mRNA in the absence of chemical substance (yeast gene YCL025C): 4.6
The level of expressed mRNA in the presence of chemical substance/The level of expressed mRNA in the absence of chemical substance (yeast gene YCL038C): 1.6
The level of expressed mRNA in the presence of chemical substance/The level of expressed mRNA in the absence of chemical substance (yeast gene YCR024C-A): 0.9
The level of expressed mRNA in the presence of chemical substance/The level of expressed mRNA in the absence of chemical substance (yeast gene YCR037C): 1.0
The level of expressed mRNA in the presence of chemical substance/The level of expressed mRNA in the absence of chemical substance (yeast gene YCR098C): 3.0
The level of expressed mRNA in the presence of chemical substance/The level of expressed mRNA in the absence of chemical substance (yeast gene YDL128W): 1.1
The level of expressed mRNA in the presence of chemical substance/The level of expressed mRNA in the absence of chemical substance (yeast gene YDL198C): 1.0
The level of expressed mRNA in the presence of chemical substance/The level of expressed mRNA in the absence of chemical substance (yeast gene YDL210W): 2.2
The level of expressed mRNA in the presence of chemical substance/The level of expressed mRNA in the absence of chemical substance (yeast gene YDL245C): 2.4
The level of expressed mRNA in the presence of chemical substance/The level of expressed mRNA in the absence of chemical substance (yeast gene YDR038C): 1.3
The level of expressed mRNA in the presence of chemical substance/The level of expressed mRNA in the absence of chemical substance (yeast gene YDR039C): 1.6
The level of expressed mRNA in the presence of chemical substance/The level of expressed mRNA in the absence of chemical substance (yeast gene YDR086C): 1.0
The level of expressed mRNA in the presence of chemical substance/The level of expressed mRNA in the absence of chemical substance (yeast gene YDR270W): 1.5
The level of expressed mRNA in the presence of chemical substance/The level of expressed mRNA in the absence of chemical substance (yeast gene YDR298C): 1.2
The level of expressed mRNA in the presence of chemical substance/The level of expressed mRNA in the absence of chemical substance (yeast gene YDR342C): 1.1
The level of expressed mRNA in the presence of chemical substance/The level of expressed mRNA in the absence of chemical substance (yeast gene YDR343C): 1.0
The level of expressed mRNA in the presence of chemical substance/The level of expressed mRNA in the absence of chemical substance (yeast gene YDR345C): 0.9
The level of expressed mRNA in the presence of chemical substance/The level of expressed mRNA in the absence of chemical substance (yeast gene YDR387C): 0.9
The level of expressed mRNA in the presence of chemical substance/The level of expressed mRNA in the absence of chemical substance (yeast gene YDR497C): 0.5
The level of expressed mRNA in the presence of chemical substance/The level of expressed mRNA in the absence of chemical substance (yeast gene YEL027W): 0.6
The level of expressed mRNA in the presence of chemical substance/The level of expressed mRNA in the absence of chemical substance (yeast gene YEL063C): 0.8
The level of expressed mRNA in the presence of chemical substance/The level of expressed mRNA in the absence of chemical substance (yeast gene YEL065W): 3.8
The level of expressed mRNA in the presence of chemical substance/The level of expressed mRNA in the absence of chemical substance (yeast gene YER053C): 1.8
The level of expressed mRNA in the presence of chemical substance/The level of expressed mRNA in the absence of chemical substance (yeast gene YFL011W): 0.7
The level of expressed mRNA in the presence of chemical substance/The level of expressed mRNA in the absence of chemical substance (yeast gene YFL041W): 1.6
The level of expressed mRNA in the presence of chemical substance/The level of expressed mRNA in the absence of chemical substance (yeast gene YFL050C): 1.0
The level of expressed mRNA in the presence of chemical substance/The level of expressed mRNA in the absence of chemical substance (yeast gene YFL054C): 1.1
The level of expressed mRNA in the presence of chemical substance/The level of expressed mRNA in the absence of chemical substance (yeast gene YGL006W): 1.3
The level of expressed mRNA in the presence of chemical substance/The level of expressed mRNA in the absence of chemical substance (yeast gene YGL008C): 0.7
The level of expressed mRNA in the presence of chemical substance/The level of expressed mRNA in the absence of chemical substance (yeast gene YGL104C): 2.0
The level of expressed mRNA in the presence of chemical substance/The level of expressed mRNA in the absence of chemical substance (yeast gene YGL167C): 0.7
The level of expressed mRNA in the presence of chemical substance/The level of expressed mRNA in the absence of chemical substance (yeast gene YGL255W): 0.9
The level of expressed mRNA in the presence of chemical substance/The level of expressed mRNA in the absence of chemical substance (yeast gene YGR055W): 5.7
The level of expressed mRNA in the presence of chemical substance/The level of expressed mRNA in the absence of chemical substance (yeast gene YGR065C): 1.5
The level of expressed mRNA in the presence of chemical substance/The level of expressed mRNA in the absence of chemical substance (yeast gene YGR082W): 0.9
The level of expressed mRNA in the presence of chemical substance/The level of expressed mRNA in the absence of chemical substance (yeast gene YGR096W): 1.0
The level of expressed mRNA in the presence of chemical substance/The level of expressed mRNA in the absence of chemical substance (yeast gene YGR138C): 1.6
The level of expressed mRNA in the presence of chemical substance/The level of expressed mRNA in the absence of chemical substance (yeast gene YGR191W): 0.7
The level of expressed mRNA in the presence of chemical substance/The level of expressed mRNA in the absence of chemical substance (yeast gene YGR197C): 2.4
